# Source: PubChem BioAssay AID2060621 (Molecular Pharmacology Branch, DTP, NCI, 2025)
# Tested on: 324938-238-R-J1-PDC complex spheroids viability
# Experiment: Anticancer human tumor 324938-238-R-J1-PDC patient-derived bladder carcinoma cell line growth inhibition [CLK]
# Conditions: for IC50: curve of first compound; for viability, T/C: stronger effect = lower value
# Outline: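 Patient-derived tumor cells grown as complex spheroids with HUVEC endothelial cells and mesenchymal stem cells, treated with drug combinations. Concentrations descend in half-log steps from near clinical Cmax, or from 10 microM if Cmax unknown.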
# [1] = second compound 0.0316 µM, first compound 0.0316 µM
# [2] = second compound 0.0316 µM, first compound 0.1 µM
# [3] = second compound 0.0316 µM, first compound 0.316 µM
# [4] = second compound 0.0316 µM, first compound 1 µM
# [5] = second compound 0.0316 µM, first compound 3.16 µM
# [6] = second compound 0.0316 µM, first compound 10 µM
# [7] = second compound 0.1 µM, first compound 0.0316 µM
# [8] = second compound 0.1 µM, first compound 0.1 µM
# [9] = second compound 0.1 µM, first compound 0.316 µM
# [10] = second compound 0.1 µM, first compound 1 µM
# [11] = second compound 0.1 µM, first compound 3.16 µM
# [12] = second compound 0.1 µM, first compound 10 µM
# [13] = second compound 0.316 µM, first compound 0.0316 µM
# [14] = second compound 0.316 µM, first compound 0.1 µM
# [15] = second compound 0.316 µM, first compound 0.316 µM
# [16] = second compound 0.316 µM, first compound 1 µM
# [17] = second compound 0.316 µM, first compound 3.16 µM
# [18] = second compound 0.316 µM, first compound 10 µM
# [19] = second compound 1 µM, first compound 0.0316 µM
# [20] = second compound 1 µM, first compound 0.1 µM
# [21] = second compound 1 µM, first compound 0.316 µM
# [22] = second compound 1 µM, first compound 1 µM
# [23] = second compound 1 µM, first compound 3.16 µM
# [24] = second compound 1 µM, first compound 10 µM
# [25] = second compound 3.16 µM, first compound 0.0316 µM
# [26] = second compound 3.16 µM, first compound 0.1 µM
# [27] = second compound 3.16 µM, first compound 0.316 µM
# [28] = second compound 3.16 µM, first compound 1 µM
# [29] = second compound 3.16 µM, first compound 3.16 µM
# [30] = second compound 3.16 µM, first compound 10 µM
# [31] = second compound 10 µM, first compound 0.0316 µM
# [32] = second compound 10 µM, first compound 0.1 µM
# [33] = second compound 10 µM, first compound 0.316 µM
# [34] = second compound 10 µM, first compound 1 µM
# [35] = second compound 10 µM, first compound 3.16 µM
# [36] = second compound 10 µM, first compound 10 µM
# 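Also: viability read after seven days of drug exposure.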
# 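For viability, T/C in this document: 100% = DMSO vehicle control wells.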
smiles,measurement,setting,value
CC(=O)O[C@H]1C(=O)[C@@]2(C)[C@H]([C@H](OC(=O)c3ccccc3)[C@]3(O)C[C@H](OC(=O)[C@H](O)[C@@H](NC(=O)c4ccccc4)c4ccccc4)C(C)=C1C3(C)C)[C@]1(OC(C)=O)CO[C@@H]1C[C@@H]2O + CNC(=O)c1ccc(Nc2nc(OC3CCCC3)c3c(-c4ccc5nc(C)oc5c4)c[nH]c3n2)c(OC)c1,IC50,second compound 0.0316 µM,< 31.6 nM
same,IC50,second compound 0.1 µM,< 31.6 nM
same,IC50,second compound 0.316 µM,< 31.6 nM
same,IC50,second compound 1 µM,< 31.6 nM
same,IC50,second compound 3.16 µM,< 31.6 nM
same,IC50,second compound 10 µM,< 31.6 nM
same,"viability, T/C",[1],14.3%
same,"viability, T/C",[2],15.1%
same,"viability, T/C",[3],13.8%
same,"viability, T/C",[4],14.1%
same,"viability, T/C",[5],17.1%
same,"viability, T/C",[6],22%
same,"viability, T/C",[7],19.8%
same,"viability, T/C",[8],17.3%
same,"viability, T/C",[9],22.2%
same,"viability, T/C",[10],21.9%
same,"viability, T/C",[11],27.4%
same,"viability, T/C",[12],35.1%
same,"viability, T/C",[13],16.9%
same,"viability, T/C",[14],17.5%
same,"viability, T/C",[15],26.2%
same,"viability, T/C",[16],27.8%
same,"viability, T/C",[17],35.2%
same,"viability, T/C",[18],37%
same,"viability, T/C",[19],17.1%
same,"viability, T/C",[20],17.7%
same,"viability, T/C",[21],23.9%
same,"viability, T/C",[22],24.2%
same,"viability, T/C",[23],31.9%
same,"viability, T/C",[24],28.6%
same,"viability, T/C",[25],16.6%
same,"viability, T/C",[26],18.2%
same,"viability, T/C",[27],20.1%
same,"viability, T/C",[28],24.6%
same,"viability, T/C",[29],27.2%
same,"viability, T/C",[30],27.2%
same,"viability, T/C",[31],16.9%
same,"viability, T/C",[32],18.1%
same,"viability, T/C",[33],20.6%
same,"viability, T/C",[34],23.5%
same,"viability, T/C",[35],25.1%
same,"viability, T/C",[36],25.6%
CCc1c2c(nc3ccc(O)cc13)-c1cc3c(c(=O)n1C2)COC(=O)[C@]3(O)CC + CNC(=O)c1ccc(Nc2nc(OC3CCCC3)c3c(-c4ccc5nc(C)oc5c4)c[nH]c3n2)c(OC)c1,IC50,second compound 0.0316 µM,< 3.16 nM
same,IC50,second compound 0.1 µM,< 3.16 nM
same,IC50,second compound 0.316 µM,< 3.16 nM
same,IC50,second compound 1 µM,< 3.16 nM
same,IC50,second compound 3.16 µM,< 3.16 nM
same,IC50,second compound 10 µM,< 3.16 nM
same,"viability, T/C","second compound 0.0316 µM, first compound 0.00316 µM",17.9%
same,"viability, T/C","second compound 0.0316 µM, first compound 0.01 µM",12.3%
same,"viability, T/C",[1],12.7%
same,"viability, T/C",[2],13%
same,"viability, T/C",[3],11.2%
same,"viability, T/C",[4],2.24%
same,"viability, T/C","second compound 0.1 µM, first compound 0.00316 µM",17.9%
same,"viability, T/C","second compound 0.1 µM, first compound 0.01 µM",13.3%
same,"viability, T/C",[7],12.5%
same,"viability, T/C",[8],12.7%
same,"viability, T/C",[9],11.3%
same,"viability, T/C",[10],2.05%
same,"viability, T/C","second compound 0.316 µM, first compound 0.00316 µM",14.6%
same,"viability, T/C","second compound 0.316 µM, first compound 0.01 µM",11.1%
same,"viability, T/C",[13],11.8%
same,"viability, T/C",[14],12.1%
same,"viability, T/C",[15],9.98%
same,"viability, T/C",[16],1.99%
same,"viability, T/C","second compound 1 µM, first compound 0.00316 µM",12.2%
same,"viability, T/C","second compound 1 µM, first compound 0.01 µM",9.22%
same,"viability, T/C",[19],10.1%
same,"viability, T/C",[20],8.69%
same,"viability, T/C",[21],8.5%
same,"viability, T/C",[22],1.33%
same,"viability, T/C","second compound 3.16 µM, first compound 0.00316 µM",11.4%
same,"viability, T/C","second compound 3.16 µM, first compound 0.01 µM",9.74%
same,"viability, T/C",[25],8.18%
same,"viability, T/C",[26],8%
same,"viability, T/C",[27],6.57%
same,"viability, T/C",[28],1.29%
same,"viability, T/C","second compound 10 µM, first compound 0.00316 µM",10.2%
same,"viability, T/C","second compound 10 µM, first compound 0.01 µM",10.8%
same,"viability, T/C",[31],8.22%
same,"viability, T/C",[32],8.16%
same,"viability, T/C",[33],6.28%
same,"viability, T/C",[34],1.01%
O=c1[nH]cc(F)c(=O)[nH]1 + CNC(=O)c1ccc(Nc2nc(OC3CCCC3)c3c(-c4ccc5nc(C)oc5c4)c[nH]c3n2)c(OC)c1,IC50,second compound 0.0316 µM,256 nM
same,IC50,second compound 0.1 µM,< 31.6 nM
same,IC50,second compound 0.316 µM,< 31.6 nM
same,IC50,second compound 1 µM,< 31.6 nM
same,IC50,second compound 3.16 µM,< 31.6 nM
same,IC50,second compound 10 µM,< 31.6 nM
same,"viability, T/C",[1],80.6%
same,"viability, T/C",[2],77.5%
same,"viability, T/C",[3],43.5%
same,"viability, T/C",[4],28.6%
same,"viability, T/C",[5],22.2%
same,"viability, T/C",[6],25.1%
same,"viability, T/C",[7],25.2%
same,"viability, T/C",[8],24%
same,"viability, T/C",[9],23.8%
same,"viability, T/C",[10],19.8%
same,"viability, T/C",[11],15.7%
same,"viability, T/C",[12],17.5%
same,"viability, T/C",[13],19.6%
same,"viability, T/C",[14],18.5%
same,"viability, T/C",[15],16.2%
same,"viability, T/C",[16],14.7%
same,"viability, T/C",[17],14.3%
same,"viability, T/C",[18],14.7%
same,"viability, T/C",[19],16.1%
same,"viability, T/C",[20],15.2%
same,"viability, T/C",[21],15.4%
same,"viability, T/C",[22],13.8%
same,"viability, T/C",[23],10.5%
same,"viability, T/C",[24],9.31%
same,"viability, T/C",[25],15.3%
same,"viability, T/C",[26],14.8%
same,"viability, T/C",[27],14%
same,"viability, T/C",[28],12.7%
same,"viability, T/C",[29],11.2%
same,"viability, T/C",[30],11.1%
same,"viability, T/C",[31],17.8%
same,"viability, T/C",[32],15.3%
same,"viability, T/C",[33],15.1%
same,"viability, T/C",[34],16.6%
same,"viability, T/C",[35],12.6%
same,"viability, T/C",[36],10.3%
